Measurements from patent US11459397B2, “Self-crosslinking antibodies” (Meditope Biosciences, Inc., priority 2016, dated 2022).

Columns and labels:
[1] = test system: HER2 expressing SK-OV-3-Luc ovarian xenograft; assay: efficacy in SK-OV-3-Luc ovarian xenograft subcutaneous model; format: in vivo, mice; conditions: 20 mg/kg ip BIW, day 52 pi
Method: This study was performed to evaluate the efficacy of ADC constructs against HER2 expressing SK-OV-3-Luc ovarian xenograft subcutaneous model using both bioluminescent imaging and traditional tumor caliper measurement. Sixty-five female athymic nudes, 4 weeks old of age were obtained from Charles River. SK-OV-3-Luc cells were expanded using standard tissue culture technique. On the day of implantation, 2.5×10^6 cells in incomplete media with 30% matrigel were implanted to the right lower flank of each mouse. Animals were stratified into 7 groups of 8 mice for treatment based on the total flux (Perkin Elmer IVIS Lumina XRMS II) at day 10 pi. Animals were weighed twice weekly in conjunction with tumor measurements. Bioluminescent Imaging were performed once a week. Tumor mass were calculated using the following formula: Mass (mg)=Tumor volume (mm^3)=d^2×D/2, where d and D are the shortest and longest diameter in mm, respectively.

[2] = modulation of self-crosslinking by free meditope, silver-stained native gel; format: physicochemical; conditions: 1 μM free meditope, 100 nM SnAP-body variants 1, 2, 3
[3] = target: cetuximab Fab fragment; assay: meditope binding to cetuximab Fab; conditions: meditope-binding site within the central cavity of the cetuximab Fab fragment; read-out: binding constant
Sequence of cetuximab Fab fragment (as listed by the source, other chains not shown): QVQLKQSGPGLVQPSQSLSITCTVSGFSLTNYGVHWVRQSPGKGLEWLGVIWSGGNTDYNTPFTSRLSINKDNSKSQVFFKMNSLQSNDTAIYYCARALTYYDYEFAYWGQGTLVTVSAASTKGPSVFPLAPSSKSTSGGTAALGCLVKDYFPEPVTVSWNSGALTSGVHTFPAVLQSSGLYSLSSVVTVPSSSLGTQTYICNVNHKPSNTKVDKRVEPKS
Text: In some examples, the meditope-binding site is a structural feature of the monoclonal antibody cetuximab. Thus, in some cases, the meditope-binding site contains residues corresponding to those within the meditope binding site of cetuximab.

[4] = test system: CLL; conditions: Phase I, cited from earlier work
[5] = 46 heavily pretreated CLL patients, single agent

Compound `CC(=O)O[C@H]1C(=O)[C@@]2(C)[C@H]([C@H](OC(=O)c3ccccc3)[C@]3(O)C[C@H](OC(=O)[C@H](O)[C@@H](NC(=O)c4ccccc4)c4ccccc4)C(C)=C1C3(C)C)[C@]1(OC(C)=O)CO[C@@H]1C[C@@H]2O` [Paclitaxel] has a TGI [1] of 2.80%.
In the case of C-QFDLSTRRLK-C [cQFD meditope], the “effect of free meditope on antibody self-crosslinking” value [2] is reported as “can interfere with the self-crosslinking ability of self-crosslinking antibodies” and the Kd [3] is reported as about 700 nM.
In the case of “lumiliximab: primatized anti-CD23 mAb that contains cynomolgus macaque variable regions and human constant regions (IgG1-κ)”, the “objective Complete Responses (CRs) or Partial Responses (PRs)” value [4, 5] is given as “no objective Complete Responses (CRs) or Partial Responses (PRs) were observed”, the “patients with decreased peripheral blood lymphocyte counts” value [4, 5] is given as 91 % of patients and the “patients with reduced enlarged lymph node size” value [4, 5] is given as 52 % of patients. For the same compound, the “MTD (maximum tolerated dose)” value ([4]; CLL patients) was “not reached”, the “adverse events (AEs)” value ([4]; CLL patients) was “majority of adverse events (AEs) are limited to grade 1/2” and the immunosuppression ([4]; CLL patients) was “not immunosuppressive”.
